Literature values as cited in patent US3959464A, “Microencapsulated methyl and ethyl parathion insecticide in aqueous carrier” (Pennwalt Corporation, priority 1971, dated 1976).

How the values were obtained:
[1] = system: insects; details: ordinary methods of application
[2] = system: food crops; details: unmodified, unencapsulated
[3] = for effect of moisture (hydrolysis): contacted by moisture; for degradation in the field: hydrolysis and oxidation reactions

In the case of `CCOP(=S)(OCC)Oc1ccc([N+](=O)[O-])cc1` [ethyl parathion, O,O-diethyl-O-p-nitrophenol phosphorothioate], the “period of pesticidal effectiveness in the field” value [1] is given as “only several days”, the phytotoxicity [2] is given as “chemical phytotoxicity to various food crops” and the “effect of moisture (hydrolysis)” value [3] is given as “rendered ineffectual by hydrolysis when contacted by moisture”. The “degradation in the field” value [3] was “rapid degradation in the field”.

For `COP(=S)(OC)Oc1ccc([N+](=O)[O-])cc1` [methyl parathion, O,O-dimethyl-O-p-nitrophenol phosphorothioate], the “period of pesticidal effectiveness in the field” value [1] is given as “only several days”, the phytotoxicity [2] is given as “chemical phytotoxicity to various food crops” and the “effect of moisture (hydrolysis)” value [3] is given as “rendered ineffectual by hydrolysis when contacted by moisture”. For the same compound, the “degradation in the field” value [3] was “rapid degradation in the field”.
